Laboratory results taken from patent US20240424115A1, “LONG-ACTING INTERLEUKIN-15 RECEPTOR AGONISTS AND RELATED IMMUNOTHERAPEUTIC COMPOSITIONS AND METHODS” (Nektar Therapeutics, priority 2017, published 2024).

Experiments:
[1] = system: NK cells, CD8 T cells, CD4 T cells; experiment: In vivo PD study in non-human primates: lymphocyte cell numbers and proliferation; parameters: species or system cynomolgus monkeys
Experimental: In the study, cynomolgus monkeys, one female and one male, were administered 500 μg/kg of Conjugate 2 intravenously. A series of blood samples were taken from each animal before treatment (day-6 and -1) and at multiple intervals following single dose treatment for assessment by flow cytometry of lymphocyte cell numbers (NK cells, CD8 T-cells, etc.) and activation.
NK cell counts were determined to assess the ability of exemplary Conjugate 2 to induce sustained NK cell proliferation in non-human primates; results are shown in FIGS. 16A and 16B. NK cells and their proliferation in blood from cynomolgus monkey were identified by flow cytometry. Acquisition and analysis of NK cells (CD45+ CD3− CD16+) and their proliferation status (CD45+CD3−CD16+ Ki67+) were conducted using BD FACS DIVA software. Absolute values for NK cells and proliferating NK cells were used to calculate % Ki67 positivity within the NK population. Pre and post-treatment values were plotted using Prism.
CD8 T cell counts were also determined as illustrated in FIG. 17 for each animal from pre-dose to 14 days post-administration. Specifically, CD8 T cells were defined as CD45+CD3+CD4−CD8+. Blood from the monkeys was also subject to immunophenotyping as previously described. In monkey, CD8 T cells increased in a sustained manner, an effect lasting for at least 10 days. This plot further exemplifies the ability of an exemplary long acting IL-15 receptor agonist, Conjugate 2, to induce proliferation and sustained increases in numbers of CD8 T-cells post-administration.
In monkey, CD8 TEM cells were defined as CD45+CD3+CD4−CD8+CD45Ra−CD197− and CD8 Tcm were defined as CD45+CD3+CD4−CD8+CD45Ra−CD197+. Immunophenotyping was conducted by flow cytometry with sample acquisition on DIVA software and data analysis on Flowjo software. Graphs were plotted using Prism. […] The figures indicate that both CD8 effector and central memory T cell populations proliferate in response to exemplary Conjugate 2.
In this study, cynomolgus monkeys (cyno), one female and one male, were each intravenously administered a single dose of Conjugate 1 (0.1 mg/kg). A series of blood samples were taken from each animal over a 14-day time course and subjected to flow cytometry analysis of various lymphocytes (CD8 T cells, Ki-67 percent positivity within total CD8, CD8 central memory T cells (TCM) and CD8 effector memory T cells (Tem), NK cells and Ki-67 percent positivity of NK cells).
Cynomolgus monkeys (n=3-4 males), were administered a single intravenous injection of Conjugate 1 at 0.003, 0.01, 0.1 mg/kg or a vehicle control. Blood samples were collected at the indicated time points pre and post dose (−5, −2, 1, 2, 3, 4, 5, 6, 7, 10, 14, 17 days) and subjected to flow cytometric analysis to examine pharmacodynamic effects within lymphocyte populations. Proliferation (% Ki-67) and JAK/STAT signaling (% pSTAT5) for NK cells, CD8 T cells, and CD4 T cells were examined, with the results shown in FIGS. 45A-C and FIGS. 46A-C, respectively.
In cynomolgus monkey, CD8 naïve and memory subpopulations were defined by CD45Ra, CD197 and CD95. […] Within the CD8 Tem, […] and Tscm populations, Conjugate 1 induced robust % Ki-67 expression in a dose dependent manner with detectable increases in proliferation marker positivity starting as early as day 2, reaching a maximum at day 5 and returning to baseline between days 10-14. The Ki-67 expression and kinetics within the CD8 populations support the sustained increase in CD8 T cell numbers shown in Example 27 and FIGS. 47A-D.

YAC-1 cells = format: cell-based
Experimental: NK cell-mediated cytotoxicity against target tumor cells was evaluated in vitro using a flow cytometry-based assay. NK cells were isolated from spleens of Balb/c mice using negative-selection magnetic cell isolation (Mouse NK cell enrichment kit, Stemcell Technologies) and used as effector cells. For in vitro studies, isolated NK cells were stimulated with Conjugate 1 at concentrations of 3000, 1000, 300, 30, 3, or 0 (unstimulated) ng/ml overnight in a humidified incubator at 37° C., 5% CO2 prior to use in the cytotoxicity assay. For in vivo studies, mice were dosed with 0.3 mg/kg Conjugate 1, and splenic NK cells were isolated 24, 48, and 72 h post-dose and used directly in the cytotoxicity assay.
YAC-1 T-cells labeled with PKH26 were used as target cells. To monitor NK cell cytotoxicity, NK and YAC-1 cells were co-cultured at various effector: target ratios (50:1, 25:1, and 12.5:1) for 4 hours at 37° C., 5% CO2, then stained with 7-AAD for 10 min to label dead cells. Cells were immediately analyzed using flow cytometry. Lysed target cells were identified as PKH26+7-AAD+.
Balb/c mice (n=2/group) were treated with Conjugate 1 (0.006, 0.03 or 0.3 mg/kg), IL-15 (1 mg/kg) or vehicle control. After treatment, spleens were isolated 24, 72, and 96 hours for NK cell isolation. […]

CT-26 cells = experiment: CT-26 lung metastasis model; conditions: for lung nodule inhibition: Example 19, one week apart
Experimental: At day 0, 6-8 week-old female Balb/c mice were inoculated with 1×10^5 mouse CT-26 cells by tail vein injection. On day 1, post 24 h of CT-26 cells being administered, mice were divided into ten groups. […] Each group was assigned one intervention as follows: vehicle, phosphate buffered saline (Group A); native IL-15 alone (Group B); Conjugate 2 at a dose of 0.03 mg/kg (Group C); Conjugate 2 at a dose of 0.1 mg/kg (Group D); Conjugate 2 at a dose of 0.3 mg/kg (Group E); Conjugate 2 at a dose of 1.0 mg/kg (Group F); Conjugate 2 at a dose of 3.0 mg/kg (Group G); for Conjugate 1: vehicle, phosphate buffered saline (Group H); Conjugate 1 at a dose of 0.03 mg/kg (Group I) and Conjugate 1 at a dose of 0.3 mg/kg (Group J). Animals were dosed at days 1, 5, and 10.
Post 13 days from the date of CT-26 tumor cells administration, mice were anesthetized, and blood and spleen cells were collected for further analysis of immunophenotype markers, while lungs were fixed for 24-48 h in Bouins solution containing picric acid and formaldehyde.
The number of lung tumor nodules were counted under a dissection per each lung and mean of lung nodules for each group was determined. The statistical significance was also obtained between the vehicle group vs intervention groups using unpaired students t test.
Balb/c mice received tail vein injection of 1×10^5 CT-26 colorectal carcinoma cells. The following day, mice (n=9/group) were treated weekly, twice, with Conjugate 1 (0.03 or 0.3 mg/kg) or vehicle control. Five days after the second injection, mice were humanely sacrificed and lung nodules were counted.
CT-26 mice (n=7-11/group) were injected with anti-asialo GM1 to deplete NK cells or two different controls (lgG or PBS), then injected with 1×10^5 CT-26 tumor cells. Mice were then treated with Conjugate 2 at 0.3 mg/kg dosed on days 1, 5 and 10 post tumor cell injection or vehicle control. Mice were sacrificed and lung nodules were counted three days after the last day of treatment.

[2] = cynomolgus monkey, each dose level, vs vehicle

mono-mPEG-SBA40K-IL-15 [Conjugate 1]
time NK cell numbers were sustained ([1]; NHP, 0.1 and 0.01 mg/kg): up to 14 days
CD4 T cell numbers, % Ki-67 and % pSTAT5 ([1]; NHP, highest dose level 0.1 mg/kg): induced a small increase in CD4 T cell numbers, % Ki-67 and % pSTAT5
day of maximal total CD8 T cell numbers ([1]; NHP, single i.v.): ~5 days
dose at which % Ki-67 positivity in CD8 T cells is detectable ([1]; NHP, single i.v.): 10 µg/kg
dose at which effect on total CD8 cell numbers can be detected ([1]; NHP, single i.v.): 3 µg/kg
dose level at which a significant increase in % Ki-67 in NK cells can be detected ([1]; NHP, single i.v.): 1 µg/kg
first detectable increase in % Ki-67 in CD8 Tem, Tcm and Tscm ([1]; NHP, single i.v.): 2 days
lowest dose level yielding a significant increase in NK cells ([1]; NHP, single i.v.): 10 µg/kg
maximum of % Ki-67 in CD8 Tem, Tcm and Tscm ([1]; NHP, single i.v.): 5 days
return of % Ki-67 in CD8 Tem, Tcm and Tscm to baseline ([1]; NHP, single i.v.): 10 to 14 days
time Ki-67 expression in NK cells can be sustained ([1]; NHP, single i.v.): up to 14 days
time increase in total CD8 T cells is sustained ([1]; NHP, single i.v.): over seven
time of maximum NK cell numbers after dosing ([1]; NHP, single i.v.): five
increase in CD8 T cell numbers ([1]; cyno, single i.v. 0.1 mg/kg): 7-10 X
increase in CD8 Tcm numbers ([1]; cyno, single i.v. 0.1 mg/kg): 27-30 X
increase in CD8 Tem numbers ([1]; cyno, single i.v. 0.1 mg/kg): 21-33 X
increase in NK cells ([1]; cyno, single i.v. 0.1 mg/kg): 9-10 X
time increase in CD8 T cell numbers was sustained [1, 2]: at least 10 days
time increase in NK cell numbers was sustained [1, 2]: at least 14 days
NK cytotoxicity (percent specific lysis of YAC-1 cells) after treatment of mice (YAC-1 cells): elevation of NK cytotoxicity superior in magnitude and duration
survival (CT-26 cells; 0.3 mg/kg, followed 32 days post tumor cell injection, vs vehicle): increased survival significantly
reduction in lung metastases in comparison to vehicle (CT-26 cells; Example 13, i.v. days 1, 5, 10, dose not stated): 85%
lung nodule inhibition (CT-26 cells; 0.03 mg/kg dosed twice): 40%
lung nodule inhibition (CT-26 cells; 0.3 mg/kg dosed twice): 80%
